# According to ChEMBL document CHEMBL1140789, “Sulfonate chalcone as new class voltage-dependent K+ channel blocker” (Bioorg Med Chem Lett, 2008):
# Assays:
# Assay type in all cases: cell-based
# [1] = Blockade of human K+ channel in HEK293 cells assessed as inhibition of outward delayed rectifying K+ current
# HEK293 = experiment: Blockade of human K+ channel in HEK293 cells assessed as inhibition of outward delayed rectifying K+ current at 10 uM
# [2] = biological target: Potassium voltage-gated channel subfamily A member 2 (Homo sapiens) (UniProt P16389); experiment: Blockade of Kv1.2 channel over-expressed in CHO cells assessed as inhibition of delayed rectifying K+ current at 10 uM
# Potassium voltage-gated channel subfamily A member 2 (Homo sapiens), sequence (P16389 whole entry): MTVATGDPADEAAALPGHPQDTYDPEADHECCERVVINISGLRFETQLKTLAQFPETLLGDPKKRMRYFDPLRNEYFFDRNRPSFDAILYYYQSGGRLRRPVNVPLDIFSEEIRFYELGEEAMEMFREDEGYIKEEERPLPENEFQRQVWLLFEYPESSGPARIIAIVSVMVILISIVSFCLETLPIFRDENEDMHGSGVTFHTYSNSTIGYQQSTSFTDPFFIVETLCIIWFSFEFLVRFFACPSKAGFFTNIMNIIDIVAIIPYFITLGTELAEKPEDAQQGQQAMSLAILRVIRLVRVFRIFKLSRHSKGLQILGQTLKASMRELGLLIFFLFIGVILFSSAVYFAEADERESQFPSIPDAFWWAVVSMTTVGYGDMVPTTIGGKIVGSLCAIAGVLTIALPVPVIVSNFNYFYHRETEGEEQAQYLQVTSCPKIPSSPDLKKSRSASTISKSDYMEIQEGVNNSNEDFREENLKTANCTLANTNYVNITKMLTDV
# [3] = biological target: Potassium voltage-gated channel subfamily A member 6 (Homo sapiens) (UniProt P17658); experiment: Blockade of Kv1.6 channel over-expressed in CHO cells assessed as inhibition of delayed rectifying K+ current at 10 uM
# Potassium voltage-gated channel subfamily A member 6 (Homo sapiens), sequence (P17658 whole entry): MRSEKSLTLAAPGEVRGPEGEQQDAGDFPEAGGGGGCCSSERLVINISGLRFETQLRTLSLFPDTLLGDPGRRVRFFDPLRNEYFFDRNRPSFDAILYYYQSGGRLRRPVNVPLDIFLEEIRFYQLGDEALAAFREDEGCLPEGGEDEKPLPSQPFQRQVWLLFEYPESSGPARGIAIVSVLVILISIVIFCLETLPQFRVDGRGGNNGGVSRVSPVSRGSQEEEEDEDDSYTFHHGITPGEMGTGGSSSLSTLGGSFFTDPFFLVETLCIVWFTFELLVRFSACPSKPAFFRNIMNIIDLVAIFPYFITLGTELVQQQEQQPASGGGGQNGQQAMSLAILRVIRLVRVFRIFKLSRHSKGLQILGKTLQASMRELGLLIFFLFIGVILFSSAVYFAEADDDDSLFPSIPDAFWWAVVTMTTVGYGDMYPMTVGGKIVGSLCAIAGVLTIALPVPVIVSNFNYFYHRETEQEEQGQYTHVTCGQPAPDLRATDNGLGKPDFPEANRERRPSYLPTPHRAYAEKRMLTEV
# [4] = biological target: Potassium voltage-gated channel subfamily A member 1 (Homo sapiens) (UniProt Q09470); experiment: Blockade of Kv1.1 channel over-expressed in CHO cells assessed as inhibition of delayed rectifying K+ current at 10 uM
# Potassium voltage-gated channel subfamily A member 1 (Homo sapiens), sequence (Q09470 whole entry): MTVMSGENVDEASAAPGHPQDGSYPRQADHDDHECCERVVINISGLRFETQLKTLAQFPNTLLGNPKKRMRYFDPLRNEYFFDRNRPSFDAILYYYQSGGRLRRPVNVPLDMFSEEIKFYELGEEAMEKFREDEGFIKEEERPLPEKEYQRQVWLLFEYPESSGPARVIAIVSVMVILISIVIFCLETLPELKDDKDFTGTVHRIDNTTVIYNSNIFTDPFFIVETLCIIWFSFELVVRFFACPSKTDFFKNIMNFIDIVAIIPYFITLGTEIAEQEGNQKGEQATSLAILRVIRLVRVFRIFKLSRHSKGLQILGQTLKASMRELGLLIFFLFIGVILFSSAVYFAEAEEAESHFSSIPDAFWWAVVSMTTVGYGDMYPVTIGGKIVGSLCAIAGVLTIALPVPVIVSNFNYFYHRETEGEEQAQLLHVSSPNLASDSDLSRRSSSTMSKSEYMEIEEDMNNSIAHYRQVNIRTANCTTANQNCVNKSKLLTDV
# [5] = biological target: Potassium voltage-gated channel subfamily A member 3 (Homo sapiens) (UniProt P22001); experiment: Blockade of Kv1.3 channel over-expressed in CHO cells assessed as inhibition of delayed rectifying K+ current at 10 uM
# Potassium voltage-gated channel subfamily A member 3 (Homo sapiens), sequence (P22001 whole entry): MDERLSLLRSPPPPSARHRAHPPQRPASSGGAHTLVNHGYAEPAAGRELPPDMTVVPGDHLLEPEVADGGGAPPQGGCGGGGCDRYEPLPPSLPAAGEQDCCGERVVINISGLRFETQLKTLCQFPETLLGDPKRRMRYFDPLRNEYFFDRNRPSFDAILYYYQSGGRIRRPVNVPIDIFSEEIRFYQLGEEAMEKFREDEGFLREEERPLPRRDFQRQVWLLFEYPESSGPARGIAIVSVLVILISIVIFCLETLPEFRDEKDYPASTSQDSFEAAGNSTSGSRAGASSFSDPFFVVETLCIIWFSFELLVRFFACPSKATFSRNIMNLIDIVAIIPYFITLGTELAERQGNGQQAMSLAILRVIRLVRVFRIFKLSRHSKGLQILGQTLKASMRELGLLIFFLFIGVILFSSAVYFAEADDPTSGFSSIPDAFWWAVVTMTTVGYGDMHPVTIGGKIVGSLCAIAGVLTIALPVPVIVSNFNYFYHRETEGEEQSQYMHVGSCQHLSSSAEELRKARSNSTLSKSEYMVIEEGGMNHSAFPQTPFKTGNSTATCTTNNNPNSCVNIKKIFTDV
Structure (SMILES),IC50 [1] [µM],further results
CC(=O)Nc1ccc(S(=O)(=O)Oc2ccc(C(=O)/C=C/c3ccc(O)cc3)cc2)cc1,> 10,–
O=C(/C=C/c1ccc(O)cc1)c1ccccc1 [4-HYDROXYCHALCONE],> 50,–
O=C(/C=C/c1ccc(OS(=O)(=O)c2ccc(F)cc2)cc1)c1ccccc1,> 50,–
O=C(/C=C/c1ccccc1)c1ccccc1 [CHALCONE],> 50,inhibition (HEK293): 24.2%
Cc1ccc(S(=O)(=O)Oc2ccc(C(=O)/C=C/c3ccc(O)cc3)cc2)cc1,1.6,–
Nc1ccc(S(=O)(=O)Oc2cccc(C(=O)/C=C/c3ccc(O)cc3)c2)cc1,0.51,inhibition [2]: 87.4%; inhibition [3]: 44.2%; inhibition [4]: 87.5%; inhibition [5]: 20.6%
Cc1ccc(S(=O)(=O)Oc2ccc(/C=C/C(=O)c3ccccc3)cc2)cc1,> 50,–
Nc1ccc(S(=O)(=O)Oc2ccc(C(=O)/C=C/c3ccccc3)cc2)cc1,0.85,–
Cc1ccc(S(=O)(=O)Oc2ccc(/C=C/C(=O)c3ccc(O)cc3)cc2)cc1,> 50,–
O=C(/C=C/c1ccccc1)c1ccc(O)cc1 [4'-HYDROXYCHALCONE],> 50,–
O=C(/C=C/c1ccc(O)cc1)c1ccc(OS(=O)(=O)c2ccc([N+](=O)[O-])cc2)cc1,10.7,–
"O=C(/C=C/c1ccc(O)cc1)c1ccc(O)cc1 [4,4'-DIHYDROXYCHALCONE]",> 50,inhibition (HEK293): 28.2%
O=C(/C=C/c1ccc(O)cc1)c1ccc(OS(=O)(=O)c2ccccc2)cc1,2.4,–
O=C(/C=C/c1ccc(O)cc1)c1ccc(OS(=O)(=O)c2ccc(F)cc2)cc1,2.7,–
COc1ccc(/C=C/C(=O)c2ccc(OS(=O)(=O)c3ccc(C)cc3)cc2)cc1,> 10,–
O=C(/C=C/c1ccc(OS(=O)(=O)c2ccccc2)cc1)c1ccccc1,> 50,–
Nc1ccc(S(=O)(=O)Oc2ccc(C(=O)/C=C/c3ccc(O)cc3)cc2)cc1,1.1,–
